According to US9326506B2, “Preparation method, agricultural composition and applications of natural brassinolide analogs” (CHENGDU NEWSUN CROPSCIENCE CO., LTD, priority 2012, dated 2016):

System: rice
Assay: Low temperature assay on rice seedlings
Format: in vivo
Protocol: According to a low temperature assay, we measured parameters including plant height, number of leaf, area of leaf, number of tiller, weight of root at low temperature to completely determine effects of the natural brassinolide analogues on the resistance to low temperature of a plant.
The natural brassinolide analogues, BR1, BR2, BR3, BR4, BR5 and BR6, used herein, were those prepared by the method of Example 1. Respectively the analogues were dissolved into 95% (V/V) ethanol solution, and then diluted with pure water to 1 mg/L, 0.1 mg/L, 0.01 mg/L, 0.001 mg/L and 0.0001 mg/L. In addition, pure water was used as a control.
After rice seeds were disinfected by using 5% sodium hypochlorite solution treatment, they were rinsed with distilled water until their pH>7, placed into a petri dish in a dark incubator, and cultured by using water at 30° C.±2° C. for 9 days. Then respectively the nine-day-old etiolated seedlings of rice were immersed in the above solutions containing different concentrations of the natural brassinolide analogues or pure water, and cultured at the temperature of 1° C., 2° C., 3° C., 4° C. and 5° C. for 24 hr. The parameters including plant height, area of leaf and weight of root after 3, 6, 9 and 12 days and number of leaf and number of tiller after 12 days were measured.

SMILES: C=C(C(C)C)[C@@H](O)[C@H](O)[C@@H](C)[C@H]1CCC2C3COC(=O)C4C[C@H](O)[C@H](O)C[C@]4(C)C3CC[C@@]21C (stereo partly shown) [BR3]
- Height (0.01 mg/l, 3 °C, 9 days): 7.5 cm
- Weight of root (0.01 mg/l, 3 °C, 9 days): 2.9 g
- Area of leaf (0.01 mg/l, 3 °C, 12 days): 13.2 cm^2
- Height (0.01 mg/l, 3 °C, 12 days): 7.8 cm
- Number of leaf (0.01 mg/l, 3 °C, 12 days): 3
- Number of tiller (0.01 mg/l, 3 °C, 12 days): 2
- Weight of root (0.01 mg/l, 3 °C, 12 days): 2.9 g
- Area of leaf (0.01 mg/l, 4 °C, 3 days): 10.8 cm^2
- Height (0.01 mg/l, 4 °C, 3 days): 7.1 cm
- Weight of root (0.01 mg/l, 4 °C, 3 days): 2.5 g
- Area of leaf (0.01 mg/l, 4 °C, 6 days): 12.4 cm^2
- Height (0.01 mg/l, 4 °C, 6 days): 7.4 cm
- Weight of root (0.01 mg/l, 4 °C, 6 days): 2.6 g
- Area of leaf (0.01 mg/l, 4 °C, 9 days): 13 cm^2
- Height (0.01 mg/l, 4 °C, 9 days): 7.7 cm
- Weight of root (0.01 mg/l, 4 °C, 9 days): 2.9 g
- Area of leaf (0.01 mg/l, 4 °C, 12 days): 13.5 cm^2
- Height (0.01 mg/l, 4 °C, 12 days): 7.8 cm
- Number of leaf (0.01 mg/l, 4 °C, 12 days): 3
- Number of tiller (0.01 mg/l, 4 °C, 12 days): 2
- Weight of root (0.01 mg/l, 4 °C, 12 days): 3.0 g
- Area of leaf (0.01 mg/l, 5 °C, 3 days): 10.3 cm^2
- Height (0.01 mg/l, 5 °C, 3 days): 7.4 cm
- Weight of root (0.01 mg/l, 5 °C, 3 days): 2.8 g
- Area of leaf (0.01 mg/l, 5 °C, 6 days): 13.1 cm^2
- Height (0.01 mg/l, 5 °C, 6 days): 7.6 cm
- Weight of root (0.01 mg/l, 5 °C, 6 days): 3.0 g
- Area of leaf (0.01 mg/l, 5 °C, 9 days): 16.4 cm^2
- Height (0.01 mg/l, 5 °C, 9 days): 7.8 cm
- Weight of root (0.01 mg/l, 5 °C, 9 days): 3.4 g
- Area of leaf (0.01 mg/l, 5 °C, 12 days): 17 cm^2
- Height (0.01 mg/l, 5 °C, 12 days): 8.2 cm
- Number of leaf (0.01 mg/l, 5 °C, 12 days): 4
- Number of tiller (0.01 mg/l, 5 °C, 12 days): 3
- Weight of root (0.01 mg/l, 5 °C, 12 days): 3.9 g
- Area of leaf (0.1 mg/l, 1 °C, 3 days): 10.1 cm^2
- Height (0.1 mg/l, 1 °C, 3 days): 7.1 cm
- Weight of root (0.1 mg/l, 1 °C, 3 days): 2.8 g
- Area of leaf (0.1 mg/l, 1 °C, 6 days): 11 cm^2
- Height (0.1 mg/l, 1 °C, 6 days): 7.2 cm
- Weight of root (0.1 mg/l, 1 °C, 6 days): 2.9 g
- Area of leaf (0.1 mg/l, 1 °C, 9 days): 12.1 cm^2
- Height (0.1 mg/l, 1 °C, 9 days): 7.3 cm
- Weight of root (0.1 mg/l, 1 °C, 9 days): 3.4 g
- Area of leaf (0.1 mg/l, 1 °C, 12 days): 13.1 cm^2
- Height (0.1 mg/l, 1 °C, 12 days): 7.4 cm
- Number of leaf (0.1 mg/l, 1 °C, 12 days): 3
- Number of tiller (0.1 mg/l, 1 °C, 12 days): 3
- Weight of root (0.1 mg/l, 1 °C, 12 days): 3.6 g
- Area of leaf (0.1 mg/l, 2 °C, 3 days): 10.4 cm^2
- Height (0.1 mg/l, 2 °C, 3 days): 7.1 cm
- Weight of root (0.1 mg/l, 2 °C, 3 days): 2.8 g
- Area of leaf (0.1 mg/l, 2 °C, 6 days): 11.2 cm^2
- Height (0.1 mg/l, 2 °C, 6 days): 7.3 cm
- Weight of root (0.1 mg/l, 2 °C, 6 days): 3.0 g
- Area of leaf (0.1 mg/l, 2 °C, 9 days): 12.6 cm^2
- Height (0.1 mg/l, 2 °C, 9 days): 7.3 cm
- Weight of root (0.1 mg/l, 2 °C, 9 days): 3 g
- Area of leaf (0.1 mg/l, 2 °C, 12 days): 13.2 cm^2
- Height (0.1 mg/l, 2 °C, 12 days): 7.4 cm
- Number of leaf (0.1 mg/l, 2 °C, 12 days): 3
- Number of tiller (0.1 mg/l, 2 °C, 12 days): 3
- Weight of root (0.1 mg/l, 2 °C, 12 days): 3.2 g
- Area of leaf (0.1 mg/l, 3 °C, 3 days): 10.5 cm^2
- Height (0.1 mg/l, 3 °C, 3 days): 7.3 cm
- Weight of root (0.1 mg/l, 3 °C, 3 days): 2.5 g
- Area of leaf (0.1 mg/l, 3 °C, 6 days): 12 cm^2
- Height (0.1 mg/l, 3 °C, 6 days): 7.4 cm
- Weight of root (0.1 mg/l, 3 °C, 6 days): 2.7 g
- Area of leaf (0.1 mg/l, 3 °C, 9 days): 12.1 cm^2
- Height (0.1 mg/l, 3 °C, 9 days): 7.8 cm
- Weight of root (0.1 mg/l, 3 °C, 9 days): 2.7 g
- Area of leaf (0.1 mg/l, 3 °C, 12 days): 13.4 cm^2
- Height (0.1 mg/l, 3 °C, 12 days): 7.9 cm
- Number of leaf (0.1 mg/l, 3 °C, 12 days): 3
- Number of tiller (0.1 mg/l, 3 °C, 12 days): 2
- Weight of root (0.1 mg/l, 3 °C, 12 days): 2.9 g
- Area of leaf (0.1 mg/l, 4 °C, 3 days): 10.8 cm^2
- Height (0.1 mg/l, 4 °C, 3 days): 7.4 cm
- Weight of root (0.1 mg/l, 4 °C, 3 days): 2.5 g
- Area of leaf (0.1 mg/l, 4 °C, 6 days): 12 cm^2
- Height (0.1 mg/l, 4 °C, 6 days): 7.4 cm
- Weight of root (0.1 mg/l, 4 °C, 6 days): 2.7 g
- Area of leaf (0.1 mg/l, 4 °C, 9 days): 13.4 cm^2
- Height (0.1 mg/l, 4 °C, 9 days): 7.8 cm
- Weight of root (0.1 mg/l, 4 °C, 9 days): 2.9 g
- Area of leaf (0.1 mg/l, 4 °C, 12 days): 13.4 cm^2
- Height (0.1 mg/l, 4 °C, 12 days): 8.1 cm
- Number of leaf (0.1 mg/l, 4 °C, 12 days): 3
- Number of tiller (0.1 mg/l, 4 °C, 12 days): 2
- Weight of root (0.1 mg/l, 4 °C, 12 days): 3.1 g
- Area of leaf (0.1 mg/l, 5 °C, 3 days): 11 cm^2
- Height (0.1 mg/l, 5 °C, 3 days): 7.5 cm
- Weight of root (0.1 mg/l, 5 °C, 3 days): 2.9 g
- Area of leaf (0.1 mg/l, 5 °C, 6 days): 12.1 cm^2
- Height (0.1 mg/l, 5 °C, 6 days): 7.5 cm
- Weight of root (0.1 mg/l, 5 °C, 6 days): 3.2 g
- Area of leaf (0.1 mg/l, 5 °C, 9 days): 16.2 cm^2
- Height (0.1 mg/l, 5 °C, 9 days): 8 cm
- Weight of root (0.1 mg/l, 5 °C, 9 days): 3.5 g
- Area of leaf (0.1 mg/l, 5 °C, 12 days): 17.9 cm^2
- Height (0.1 mg/l, 5 °C, 12 days): 8.1 cm
- Number of leaf (0.1 mg/l, 5 °C, 12 days): 3
- Number of tiller (0.1 mg/l, 5 °C, 12 days): 2
- Weight of root (0.1 mg/l, 5 °C, 12 days): 4.1 g
- Area of leaf (1 mg/l, 1 °C, 3 days): 10 cm^2
- Height (1 mg/l, 1 °C, 3 days): 7.2 cm
- Weight of root (1 mg/l, 1 °C, 3 days): 2.6 g
- Area of leaf (1 mg/l, 1 °C, 6 days): 11 cm^2
- Height (1 mg/l, 1 °C, 6 days): 7.2 cm
- Weight of root (1 mg/l, 1 °C, 6 days): 3.1 g
- Area of leaf (1 mg/l, 1 °C, 9 days): 12.4 cm^2
- Height (1 mg/l, 1 °C, 9 days): 7.3 cm
- Weight of root (1 mg/l, 1 °C, 9 days): 3.1 g
- Area of leaf (1 mg/l, 1 °C, 12 days): 13 cm^2
- Height (1 mg/l, 1 °C, 12 days): 7.9 cm
- Number of leaf (1 mg/l, 1 °C, 12 days): 3
- Number of tiller (1 mg/l, 1 °C, 12 days): 3
- Weight of root (1 mg/l, 1 °C, 12 days): 3.7 g
- Area of leaf (1 mg/l, 2 °C, 3 days): 10.2 cm^2
- Height (1 mg/l, 2 °C, 3 days): 7.2 cm
- Weight of root (1 mg/l, 2 °C, 3 days): 2.6 g
- Area of leaf (1 mg/l, 2 °C, 6 days): 11.7 cm^2
- Height (1 mg/l, 2 °C, 6 days): 7.2 cm
- Weight of root (1 mg/l, 2 °C, 6 days): 3.0 g
- Area of leaf (1 mg/l, 2 °C, 9 days): 12 cm^2
- Height (1 mg/l, 2 °C, 9 days): 7.4 cm
- Weight of root (1 mg/l, 2 °C, 9 days): 3.2 g
- Area of leaf (1 mg/l, 2 °C, 12 days): 13 cm^2
- Height (1 mg/l, 2 °C, 12 days): 8 cm
- Number of leaf (1 mg/l, 2 °C, 12 days): 3
- Number of tiller (1 mg/l, 2 °C, 12 days): 3
- Weight of root (1 mg/l, 2 °C, 12 days): 3.7 g
- Area of leaf (1 mg/l, 3 °C, 3 days): 10.4 cm^2
- Height (1 mg/l, 3 °C, 3 days): 7.4 cm
- Weight of root (1 mg/l, 3 °C, 3 days): 2.5 g
- Area of leaf (1 mg/l, 3 °C, 6 days): 12 cm^2
- Height (1 mg/l, 3 °C, 6 days): 7.5 cm
- Weight of root (1 mg/l, 3 °C, 6 days): 2.6 g
- Area of leaf (1 mg/l, 3 °C, 9 days): 12 cm^2
- Height (1 mg/l, 3 °C, 9 days): 7.7 cm
- Weight of root (1 mg/l, 3 °C, 9 days): 2.7 g
- Area of leaf (1 mg/l, 3 °C, 12 days): 13.2 cm^2
- Height (1 mg/l, 3 °C, 12 days): 8.1 cm
- Number of leaf (1 mg/l, 3 °C, 12 days): 3
- Number of tiller (1 mg/l, 3 °C, 12 days): 2
- Weight of root (1 mg/l, 3 °C, 12 days): 2.9 g
- Area of leaf (1 mg/l, 4 °C, 3 days): 10.9 cm^2
- Height (1 mg/l, 4 °C, 3 days): 7.4 cm
- Weight of root (1 mg/l, 4 °C, 3 days): 2.5 g
- Area of leaf (1 mg/l, 4 °C, 6 days): 12 cm^2
- Height (1 mg/l, 4 °C, 6 days): 7.5 cm
- Weight of root (1 mg/l, 4 °C, 6 days): 2.7 g
- Area of leaf (1 mg/l, 4 °C, 9 days): 13.2 cm^2
- Height (1 mg/l, 4 °C, 9 days): 7.8 cm
- Weight of root (1 mg/l, 4 °C, 9 days): 3.0 g
- Area of leaf (1 mg/l, 4 °C, 12 days): 14 cm^2
- Height (1 mg/l, 4 °C, 12 days): 8.2 cm
- Number of leaf (1 mg/l, 4 °C, 12 days): 3
- Number of tiller (1 mg/l, 4 °C, 12 days): 2
- Weight of root (1 mg/l, 4 °C, 12 days): 3.2 g
- Area of leaf (1 mg/l, 5 °C, 3 days): 11.1 cm^2
- Height (1 mg/l, 5 °C, 3 days): 7.4 cm
- Weight of root (1 mg/l, 5 °C, 3 days): 2.9 g
- Area of leaf (1 mg/l, 5 °C, 6 days): 13.1 cm^2
- Height (1 mg/l, 5 °C, 6 days): 7.5 cm
- Weight of root (1 mg/l, 5 °C, 6 days): 3.5 g
- Area of leaf (1 mg/l, 5 °C, 9 days): 18 cm^2
- Height (1 mg/l, 5 °C, 9 days): 8.2 cm
- Weight of root (1 mg/l, 5 °C, 9 days): 3.7 g
- Area of leaf (1 mg/l, 5 °C, 12 days): 20 cm^2
- Height (1 mg/l, 5 °C, 12 days): 8.3 cm
- Number of leaf (1 mg/l, 5 °C, 12 days): 3
- Number of tiller (1 mg/l, 5 °C, 12 days): 2
- Weight of root (1 mg/l, 5 °C, 12 days): 4.5 g
